Values quoted from earlier work as cited in patent publication US20050191370A1, “Vitamin/metal salt compositions for reducing hair loss and/or promoting hair regrowth” (L'OREAL, priority 2000, published 2005).

Tested on: lung cancers in smokers

## CC1=C(/C=C/C(C)=C/C=C/C(C)=C/C=C/C=C(C)/C=C/C=C(C)/C=C/C2=C(C)CCCC2(C)C)C(C)(C)CCC1 [beta-carotene]
After 5 years of administration
  decrease in the incidence of lung cancers: No decrease
Men who received beta-carotene, population of 29,139 men who were smokers
  additional deaths: 8%
Men who received beta-carotene, population of 29,139 men who were smokers, Finland
  increase in lung cancers: 18%
